Reference: patent US6726894B1, “Transport vehicles for macromolecules” (priority 1995, dated 2004)

Columns and labels:
COS-7 cells [1] = assay: Transfection of COS-7 cells (CAT-assay); format: cell-based
COS-7 cells [2] = assay: Toxicity study, residual protein content of COS-7 cells

Question: With `CCCCCCCCC=CCCCCCCCCC(CCCCCCCCC=CCCCCCCCC)c1cc[n+](C)cc1.[Cl-]` (stereo not drawn) [SAINT-2, 1-Methyl-4-(19-cis,cis-heptatritiaconta-9,28-dienyl)pyridinium Chloride] as the compound, how does the “transfection efficiency with respect to DOTMA/DOPE vesicles” value (COS-7 cells [1]; COS-7 cells, FIG. 1) read?
Answer: The value was “eight”.

Question: What about the “transfection efficiency with respect to Lipofectine” value (COS-7 cells [1]; dependent on the cell type) of the same compound?
Answer: Its value is “at least eight”.

Question: What about the “lipid concentration from which decrease of protein content was observed” value (COS-7 cells [2]) of the same compound?
Answer: The value was 90 µM.

Question: What about the “toxicity compared with DOTMA-DOPE” value (COS-7 cells [2]) of the same compound?
Answer: The value was “clearly less toxic”.

Question: What about the “residual protein content after decrease” value (COS-7 cells [2]; decrease from 2 mg/ml) of the same compound?
Answer: Its value is 1.75 mg/mL.
